In the first test the test system is MCH receptors. Kind of test: MCH receptor activity class (method not given). The conditions noted are these: MCH receptor activity class 1-3 (percent of control at 10^-7 M or IC50).
In the case of `CN(C)c1cc(N[C@H]2CC[C@@H](CNC(=O)Nc3cc(Cl)cc(Cl)c3)CC2)nc2ccccc12` [compound 2393], the class was 3 (Class 3 The value of percent of control at 10^−7 M was more than 60% or the value of IC50 was more than 200 nM.).

As for `Cc1cc(Br)cc(C)c1NC(=O)NC[C@H]1CC[C@@H](Nc2nccc(N(C)C)n2)CC1` [compound 2436, N-(4-bromo-2,6-dimethylphenyl)-N′-[(cis-4-{[4-(dimethylamino)pyrimidin-2-yl]amino}cyclohexyl)methyl]urea], the class is on record as 1 (Class 1: The value of percent of control at 10^−7 M was less than 40% or the value of IC50 was less than 50 nM.).

As for `CC(C)c1cccc(C(C)C)c1NC(=O)NC[C@H]1CC[C@@H](Nc2nccc(N(C)C)n2)CC1` [compound 2442], the class was 1 (Class 1: The value of percent of control at 10^−7 M was less than 40% or the value of IC50 was less than 50 nM.).

The test is the same for the next values; noted with them: MCH receptor; class by percent of control at 10^-7 M or IC50.
On to `COc1ccc(OC)c(CC(=O)NC[C@H]2CC[C@@H](Nc3cc(N(C)C)c4ccccc4n3)CC2)c1` [compound 162], for which the class was 3 (Class 3 The value of percent of control at 10^−7 M was more than 60% or the value of IC50 was more than 200 nM.).

For `COc1ccc(CC(=O)NC[C@H]2CC[C@@H](Nc3cc(N(C)C)c4ccccc4n3)CC2)cc1` [compound 196], the class was 3 (Class 3 The value of percent of control at 10^−7 M was more than 60% or the value of IC50 was more than 200 nM.).

Take `CN(C)c1cc(N[C@H]2CC[C@@H](NC(=O)c3cccnc3Oc3ccccc3)CC2)nc2ccccc12` [compound 135, N-(cis-4-{[4-(dimethylamino)quinolin-2-yl]amino}cyclohexyl)-2-phenoxynicotinamide]: the class is on record as 1 (Class 1: The value of percent of control at 10^−7 M was less than 40% or the value of IC50 was less than 50 nM.).

As for `CN(C)c1cc(N[C@H]2CC[C@@H](NC(=O)c3cccc(Cl)c3F)CC2)nc2ccccc12` [compound 59], the class is recorded as 3 (Class 3 The value of percent of control at 10^−7 M was more than 60% or the value of IC50 was more than 200 nM.).

Still in this test, the particulars now being: activity class 1-3: percent of control at 10^-7 M or IC50.
As for `COC(CNC1CCC(Nc2nccc(N(C)C)n2)CC1)c1ccccc1` (stereo not drawn) [compound 1517], the class is given as 3 (Class 3 The value of percent of control at 10^−7 M was more than 60% or the value of IC50 was more than 200 nM.).

Regarding `CN(C)c1nc(N[C@H]2CC[C@@H](NC(=O)Nc3ccccc3-c3ccccc3)CC2)nc2c1CCCC2` [compound 1694], the class is listed as 3 (Class 3 The value of percent of control at 10^−7 M was more than 60% or the value of IC50 was more than 200 nM.).

On to `CN(C)c1ccnc(N[C@H]2CC[C@@H](NC(=O)OCc3ccccc3)CC2)n1` [compound 1631], for which the class was 3 (Class 3 The value of percent of control at 10^−7 M was more than 60% or the value of IC50 was more than 200 nM.).

The test is the same for the next values; noted with them: activity class per percent of control at 10^-7 M or IC50.
Regarding `COc1ccc2c(CC(=O)N[C@H]3CC[C@@H](Nc4nc5c(c(N(C)C)n4)CCCC5)CC3)cc(=O)oc2c1` [compound 990], the class was 1 (Class 1: The value of percent of control at 10^−7 M was less than 40% or the value of IC50 was less than 50 nM.).

Consider `Cc1c(C(=O)N[C@H]2CC[C@@H](Nc3nc4c(c(N(C)C)n3)CCCC4)CC2)cc(-c2ccccc2)n1-c1ccccc1` [compound 1027], for which the class is recorded as 2 (Class 2: The value of percent of control at 10^−7 M was from 40% to 60% or the value of IC′50 was from 50 nM to 200 nM.).

The test is the same for the next values; noted with them: class 1-3 by percent of control at 10^-7 M or IC50.
`CN(C)c1nc(N[C@H]2CC[C@@H](CNC(=O)c3ccc(Cl)c([N+](=O)[O-])c3)CC2)nc2c1CCCC2` [compound 589]: the class is 3 (Class 3 The value of percent of control at 10^−7 M was more than 60% or the value of IC50 was more than 200 nM.).

For the molecule `CN(C)c1nc(N[C@H]2CC[C@@H](NC(=O)c3ccc(F)c(F)c3F)CC2)nc2c1CCCC2` [compound 560], the class is given as 3 (Class 3 The value of percent of control at 10^−7 M was more than 60% or the value of IC50 was more than 200 nM.).

Still in this test, the particulars now being: class by percent of control at 10^-7 M or IC50.
As for `CN(C)c1nc(N[C@H]2CC[C@@H](CNC(=O)Cc3ccccc3Br)CC2)nc2c1CCCC2` [compound 642], the class is 3 (Class 3 The value of percent of control at 10^−7 M was more than 60% or the value of IC50 was more than 200 nM.).

In the case of `CN(C)c1ccnc(N[C@H]2CC[C@@H](CNC(=O)c3ccc(F)c(Cl)c3F)CC2)n1` [compound 407], the class is recorded as 3 (Class 3 The value of percent of control at 10^−7 M was more than 60% or the value of IC50 was more than 200 nM.).

With `CN(C)c1ccnc(N[C@H]2CC[C@@H](CNC(=O)CCc3ccccc3O)CC2)n1` [compound 931], the class was 3 (Class 3 The value of percent of control at 10^−7 M was more than 60% or the value of IC50 was more than 200 nM.).

As for `Cc1cccc(N(CCC#N)CCN[C@H]2CC[C@@H](Nc3nc4c(c(N(C)C)n3)CCCC4)CC2)c1` [compound 1489], the class was 2 (Class 2: The value of percent of control at 10^−7 M was from 40% to 60% or the value of IC′50 was from 50 nM to 200 nM.).

In the case of `CN(C)c1ccnc(N[C@H]2CC[C@@H](NC(=O)c3ccc(Cl)cc3)CC2)n1` [compound 243], the class is reported as 2 (Class 2: The value of percent of control at 10^−7 M was from 40% to 60% or the value of IC′50 was from 50 nM to 200 nM.).

Regarding `CN(C)c1cc(N[C@H]2CC[C@@H](NC(=O)CCC(=O)c3ccc(F)cc3)CC2)nc2ccccc12` [compound 707], the class is given as 3 (Class 3 The value of percent of control at 10^−7 M was more than 60% or the value of IC50 was more than 200 nM.).

With `CN(C)c1cc(N[C@H]2CC[C@@H](NC(=O)c3cc(Br)c(Br)s3)CC2)nc2ccccc12` [compound 701], the class was 2 (Class 2: The value of percent of control at 10^−7 M was from 40% to 60% or the value of IC′50 was from 50 nM to 200 nM.).

Regarding `CCOc1cc(CNC[C@H]2CC[C@@H](Nc3nccc(N(C)C)n3)CC2)ccc1OC` [compound 1255], the class is listed as 1 (Class 1: The value of percent of control at 10^−7 M was less than 40% or the value of IC50 was less than 50 nM.).

`CN(C)c1cc(N[C@H]2CC[C@@H](NC(=O)c3ccc4ncsc4c3)CC2)nc2ccccc12` [compound 779]: the class is 3 (Class 3 The value of percent of control at 10^−7 M was more than 60% or the value of IC50 was more than 200 nM.).

With `CN(C)c1ccnc(N[C@H]2CC[C@@H](NC(=O)c3ccc([N+](=O)[O-])cc3Cl)CC2)n1` [compound 320], the class is reported as 3 (Class 3 The value of percent of control at 10^−7 M was more than 60% or the value of IC50 was more than 200 nM.).

For the molecule `COc1cc(Cl)ccc1CNC[C@H]1CC[C@@H](Nc2cc(N(C)C)c3ccccc3n2)CC1` [compound 1475], the class is on record as 3 (Class 3 The value of percent of control at 10^−7 M was more than 60% or the value of IC50 was more than 200 nM.).

For `COC(C(=O)N[C@H]1CC[C@@H](Nc2nccc(N(C)C)n2)CC1)c1ccccc1` (relative stereo) [compound 916], the class is 3 (Class 3 The value of percent of control at 10^−7 M was more than 60% or the value of IC50 was more than 200 nM.).

Consider `CCc1cccc(C)c1NC(=S)N[C@H]1CC[C@@H](Nc2nc3c(c(N(C)C)n2)CCCC3)CC1` [compound 1760], for which the class is on record as 3 (Class 3 The value of percent of control at 10^−7 M was more than 60% or the value of IC50 was more than 200 nM.).

Consider `Cc1cc(C)c(NC(=S)N[C@H]2CC[C@@H](Nc3nc4c(c(N(C)C)n3)CCCC4)CC2)cc1C` [compound 1769], for which the class was 3 (Class 3 The value of percent of control at 10^−7 M was more than 60% or the value of IC50 was more than 200 nM.).

As to `CN(C)c1cc(N[C@H]2CC[C@@H](NC(=O)Nc3c(Cl)cccc3C(F)(F)F)CC2)nc2ccccc12` [compound 2103], the class is on record as 3 (Class 3 The value of percent of control at 10^−7 M was more than 60% or the value of IC50 was more than 200 nM.).

As to `COc1ccc(CNC[C@H]2CC[C@@H](Nc3nc4c(c(N(C)C)n3)CCCC4)CC2)c(OC)c1OC` [compound 1374], the class is listed as 3 (Class 3 The value of percent of control at 10^−7 M was more than 60% or the value of IC50 was more than 200 nM.).

For `Cc1c(C(=O)N[C@H]2CC[C@@H](Nc3nccc(N(C)C)n3)CC2)cc(-c2ccccc2)n1CCCN1CCOCC1` [compound 863, N-(cis-4-{[4-(dimethylamino)pyrimidin-2-yl]amino}cyclohexyl)-2-methyl-1-(3-morpholin-4-ylpropyl)-5-phenyl-1H-pyrrole-3-carboxamide], the class is listed as 2 (Class 2: The value of percent of control at 10^−7 M was from 40% to 60% or the value of IC′50 was from 50 nM to 200 nM.).

In the case of `CN(C)c1ccnc(N[C@H]2CC[C@@H](CNC(=O)c3cccc(C(F)(F)F)c3F)CC2)n1` [compound 409], the class is given as 3 (Class 3 The value of percent of control at 10^−7 M was more than 60% or the value of IC50 was more than 200 nM.).

Still in this test, the particulars now being: class by percent of control at 10^−7 M or IC50.
As for `COc1ccc(C(=O)N[C@H]2CC[C@@H](CNc3ncc(C)c(N(C)C)n3)CC2)cc1` [compound 2715], the class is given as 3 (Class 3 The value of percent of control at 10^−7 M was more than 60% or the value of IC50 was more than 200 nM.).

In the case of `COc1cc(C(=O)N[C@H]2CC[C@@H](Nc3nc(C)cc(N(C)C)n3)CC2)cc(OC)c1OC` [compound 2991, N-(cis-4-{[4-(dimethylamino)-6-methylpyrimidin-2-yl]amino}cyclohexyl)-3,4,5-trimethoxybenzamide], the class is recorded as 1 (Class 1: The value of percent of control at 10^−7 M was less than 40% or the value of IC50 was less than 50 nM.).

For the molecule `Cc1cnc(N[C@H]2CC[C@@H](CNC(=O)c3cccc(C(F)(F)F)c3)CC2)nc1N(C)C` [compound 2697, N-[(cis-4-{[4-(dimethylamino)-5-methylpyrimidin-2-yl]amino}cyclohexyl)methyl]-3-(trifluoromethyl)benzamide], the class is 1 (Class 1: The value of percent of control at 10^−7 M was less than 40% or the value of IC50 was less than 50 nM.).

As for `COc1cccc(C(=O)N[C@H]2CC[C@@H](Nc3nc(C)cc(N(C)C)n3)CC2)c1` [compound 2984, N-(cis-4-{[4-(dimethylamino)-6-methylpyrimidin-2-yl]amino}cyclohexyl)-3-methoxybenzamide], the class is 1 (Class 1: The value of percent of control at 10^−7 M was less than 40% or the value of IC50 was less than 50 nM.).

These data come from patent US20050197350A1, “Novel quinoline, tetrahydroquinazoline, and pyrimidine derivatives and methods of treatment related to the use thereof” (TAISHO PHARMACEUTICAL CO., LTD., priority 2003, published 2005).
